Experimental data from US4148896A, “Antidepressant combination” (E. I. Du Pont de Nemours and Company, priority 1978, dated 1979).
Where two headings read alike, the source gives them in different places.

How the values were obtained:
mouse brain MAO [1] = molecular target: T1, mouse brain MAO (Mus musculus, UniProt Q64133); conditions: substrate 5 HT
T1 sequence (Q64133 1-526): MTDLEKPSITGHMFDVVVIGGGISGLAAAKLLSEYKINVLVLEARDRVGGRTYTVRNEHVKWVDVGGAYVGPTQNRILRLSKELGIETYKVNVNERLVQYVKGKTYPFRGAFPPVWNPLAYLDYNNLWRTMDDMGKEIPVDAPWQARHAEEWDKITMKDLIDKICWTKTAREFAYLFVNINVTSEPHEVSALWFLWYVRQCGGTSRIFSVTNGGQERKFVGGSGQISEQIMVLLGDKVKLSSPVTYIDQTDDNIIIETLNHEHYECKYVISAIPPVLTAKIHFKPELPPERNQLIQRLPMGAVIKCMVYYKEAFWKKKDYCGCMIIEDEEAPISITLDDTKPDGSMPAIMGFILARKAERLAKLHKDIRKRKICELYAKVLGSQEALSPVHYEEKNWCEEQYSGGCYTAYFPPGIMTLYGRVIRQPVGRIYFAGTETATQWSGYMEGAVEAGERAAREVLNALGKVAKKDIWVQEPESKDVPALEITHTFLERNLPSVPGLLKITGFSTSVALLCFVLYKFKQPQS

mouse brain MAO [2] = molecular target: T1, mouse brain MAO; assay: biochemical
mice = conditions: for NUMBER OF MICE DEAD: N=10; for Effect of amantadine on molindone toxicity (mortality): mice, oral
[3] = test system: tetrabenazine-induced sedation; assay: Mouse antidepressant (antitetrabenazine) test: prevention of tetrabenazine-induced ptosis and loss of exploratory activity; conditions: for ED50: Mus musculus, po; for No. of Mice Blocked, EXPLORATORY ACTIVITY / No. of Mice Blocked, PTOSIS: 1 h after amantadine
[4] = 1 mg/kg oral (free base), 1 h, N=10
[5] = 3 mg/kg oral (free base), 1 h, N=10
[6] = 9 mg/kg oral (free base), 1 h, N=10
[7] = 20 mg/kg oral (free base), 0.5 h, N=20
[8] = 20 mg/kg oral (free base), 1 h, N=20
[9] = 20 mg/kg oral (free base), 2 h, N=20
[10] = 20 mg/kg oral (free base), 4 h, N=20
[11] = 27 mg/kg oral (free base), 1 h, N=10
[12] = 81 mg/kg oral (free base), 1 h, N=10
[13] = amantadine 2 mg/kg oral alone, N=20
[14] = amantadine 6 mg/kg oral alone, N=20
[15] = amantadine 18 mg/kg oral alone, N=20
[16] = amantadine 54 mg/kg oral alone, N=20
[17] = amantadine alone, oral, 1 h, free base basis, N=20 (Table 2)

With `NNCCc1ccccc1` [PHENELZINE . SO4] the “% INHIBITION” value (mouse brain MAO [1]; final conc. 10^-4 m/l) was 88%, the “% INHIBITION” value (mouse brain MAO [1]; final conc. 10^-5 m/l) was 81% and the “% INHIBITION” value (mouse brain MAO [1]; final conc. 10^-6 m/l) was 3%. It also gave an IC50 (mouse brain MAO [2]) of 4 µM.

In the case of `NC12CC3CC(CC(C3)C1)C2` [Amantadine, 1-adamantanamine], the “NUMBER OF MICE DEAD” value (mice; amantadine 267 mg/kg oral alone, 0.5 h) is reported as 0, the “NUMBER OF MICE DEAD” value (mice; amantadine 267 mg/kg oral alone, 1 h) is reported as 0 and the “NUMBER OF MICE DEAD” value (mice; amantadine 267 mg/kg oral alone, 2 h) is reported as 0. The “NUMBER OF MICE DEAD” value (mice; amantadine 267 mg/kg oral alone, 4 h) was 0, the “NUMBER OF MICE DEAD” value (mice; amantadine 267 mg/kg oral alone, 24 h) was 0 and the “NUMBER OF MICE DEAD” value (mice; amantadine 267 mg/kg oral alone, 336 h) was 0. For the same compound, the “NUMBER OF MICE DEAD” value (mice; amantadine 400 mg/kg oral alone, 0.5 h) was 1, the “NUMBER OF MICE DEAD” value (mice; amantadine 400 mg/kg oral alone, 1 h) was 1 and the “NUMBER OF MICE DEAD” value (mice; amantadine 400 mg/kg oral alone, 2 h) was 1. For the same compound, the “NUMBER OF MICE DEAD” value (mice; amantadine 400 mg/kg oral alone, 4 h) was 1, the “NUMBER OF MICE DEAD” value (mice; amantadine 400 mg/kg oral alone, 24 h) was 1 and the “NUMBER OF MICE DEAD” value (mice; amantadine 400 mg/kg oral alone, 336 h) was 1. The “NUMBER OF MICE DEAD” value (mice; amantadine 600 mg/kg oral alone, 0.5 h) was 4, the “NUMBER OF MICE DEAD” value (mice; amantadine 600 mg/kg oral alone, 1 h) was 4 and the “NUMBER OF MICE DEAD” value (mice; amantadine 600 mg/kg oral alone, 2 h) was 4. The “NUMBER OF MICE DEAD” value (mice; amantadine 600 mg/kg oral alone, 4 h) was 4, the “NUMBER OF MICE DEAD” value (mice; amantadine 600 mg/kg oral alone, 24 h) was 5 and the “NUMBER OF MICE DEAD” value (mice; amantadine 600 mg/kg oral alone, 336 h) was 5. The “NUMBER OF MICE DEAD” value (mice; amantadine 900 mg/kg oral alone, 0.5 h) was 8, the “NUMBER OF MICE DEAD” value (mice; amantadine 900 mg/kg oral alone, 1 h) was 8 and the “NUMBER OF MICE DEAD” value (mice; amantadine 900 mg/kg oral alone, 2 h) was 8. The “NUMBER OF MICE DEAD” value (mice; amantadine 900 mg/kg oral alone, 4 h) was 8, the “NUMBER OF MICE DEAD” value (mice; amantadine 900 mg/kg oral alone, 24 h) was 8 and the “NUMBER OF MICE DEAD” value (mice; amantadine 900 mg/kg oral alone, 336 h) was 8. For the same compound, the “NUMBER OF MICE DEAD” value (mice; amantadine 1350 mg/kg oral alone, 0.5 h) was 10, the “NUMBER OF MICE DEAD” value (mice; amantadine 1350 mg/kg oral alone, 1 h) was 10 and the “NUMBER OF MICE DEAD” value (mice; amantadine 1350 mg/kg oral alone, 2 h) was 10. The “NUMBER OF MICE DEAD” value (mice; amantadine 1350 mg/kg oral alone, 4 h) was 10, the “NUMBER OF MICE DEAD” value (mice; amantadine 1350 mg/kg oral alone, 24 h) was 10 and the “NUMBER OF MICE DEAD” value (mice; amantadine 1350 mg/kg oral alone, 336 h) was 10. The “Effect of amantadine on molindone toxicity (mortality)” value (mice) was “decreases the toxicity of molindone”, the “Effect of amantadine on molindone toxicity (mortality)” value (mice; listed as amantadine hydrochloride) was “reduces molindone hydrochloride lethal toxicity” and the “NUMBER OF MICE BLOCKED, EXPLORATORY ACTIVITY” value [3, 4] was 0. For the same compound, the “NUMBER OF MICE BLOCKED, PTOSIS” value [3, 4] was 1, the “NUMBER OF MICE BLOCKED, EXPLORATORY ACTIVITY” value [3, 5] was 0 and the “NUMBER OF MICE BLOCKED, PTOSIS” value [3, 5] was 1. The “NUMBER OF MICE BLOCKED, EXPLORATORY ACTIVITY” value [3, 6] was 4, the “NUMBER OF MICE BLOCKED, PTOSIS” value [3, 6] was 5 and the “NUMBER OF MICE BLOCKED, EXPLORATORY ACTIVITY” value [3, 7] was 1. The “NUMBER OF MICE BLOCKED, PTOSIS” value [3, 7] was 4, the “NUMBER OF MICE BLOCKED, EXPLORATORY ACTIVITY” value [3, 8] was 8 and the “NUMBER OF MICE BLOCKED, PTOSIS” value [3, 8] was 13. The “NUMBER OF MICE BLOCKED, EXPLORATORY ACTIVITY” value [3, 9] was 6, the “NUMBER OF MICE BLOCKED, PTOSIS” value [3, 9] was 11 and the “NUMBER OF MICE BLOCKED, EXPLORATORY ACTIVITY” value [3, 10] was 0. For the same compound, the “NUMBER OF MICE BLOCKED, PTOSIS” value [3, 10] was 2, the “NUMBER OF MICE BLOCKED, EXPLORATORY ACTIVITY” value [3, 11] was 4 and the “NUMBER OF MICE BLOCKED, PTOSIS” value [3, 11] was 7. For the same compound, the “NUMBER OF MICE BLOCKED, EXPLORATORY ACTIVITY” value [3, 12] was 8, the “NUMBER OF MICE BLOCKED, PTOSIS” value [3, 12] was 10 and the ED50 ([3]; 1 h, read-out: ED50, E[…], oral, free base basis, 1 h after drug (Table 1)) was 24 mg/kg. For the same compound, the ED50 ([3]; 1 h, read-out: ED50, PTOSIS, oral, free base basis, 1 h after drug (Table 1)) was 9.6 mg/kg, the “No. of Mice Blocked, EXPLORATORY ACTIVITY” value [3, 13] was 0 and the “No. of Mice Blocked, PTOSIS” value [3, 13] was 2. For the same compound, the “No. of Mice Blocked, EXPLORATORY ACTIVITY” value [3, 14] was 2, the “No. of Mice Blocked, PTOSIS” value [3, 14] was 4 and the “No. of Mice Blocked, EXPLORATORY ACTIVITY” value [3, 15] was 12. The “No. of Mice Blocked, PTOSIS” value [3, 15] was 17, the “No. of Mice Blocked, EXPLORATORY ACTIVITY” value [3, 16] was 16 and the “No. of Mice Blocked, PTOSIS” value [3, 16] was 19. For the same compound, the “ED50, EXPLORATORY ACTIVITY, Amantadine” value [3, 17] was 16.6 mg/kg, the “ED50, PTOSIS, Amantadine” value [3, 17] was 9.4 mg/kg and the “ED50, PTOSIS” value ([3]; oral, free base basis, 1 h after drug (Table 1), 60 min) was 9.4 mg/kg.
